Some test systems named below: A498 renal; HCC-2998 colon; HCT-15 colon; HL-60(TB) leukemia; HOP-62 NSCLC; HT29 colon; IGROV1 ovarian; M14 melanoma; NCI-H23 lung; SK-MEL-28 melanoma; TK-10 renal; RPMI-8226 leukemia.
Holding throughout (test): inhibition of tumour cell growth, NCI panel, 48 h

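Five compound concentrations were applied to cells in 96-well plates for 48 hours; endpoints were derived by simple linear interpolation of the resulting dose-response curve. The concentration for full growth arrest is given as TGI.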 Some results are limits rather than exact numbers.

With `COc1nn(Cc2ccccc2F)c2ccc([N+](=O)[O-])cc12`, the TGI in the test with A498 renal is more than 92.3 µM; in the test with HCC-2998 colon it was more than 100 µM; in the test on HCT-15 colon it was more than 100 µM; in the test on HL-60(TB) leukemia, more than 100 µM; in the test with HOP-62 NSCLC, more than 100 µM; with HT29 colon, more than 100 µM. Further, the TGI with IGROV1 ovarian, in the test on M14 melanoma, with NCI-H23 lung, in the test on SK-MEL-28 melanoma and in the test with TK-10 renal was more than 100 µM in each case.

In the case of `COC(=O)C1=NN2c3ccccc3C(=O)OCCC2C1` (stereo not drawn), the TGI in the test on A498 renal, in the test with HCC-2998 colon, in the test on HCT-15 colon, with HL-60(TB) leukemia, in the test on HOP-62 NSCLC and in the test with HT29 colon was more than 100 µM in each case. In addition, the TGI with IGROV1 ovarian, in the test with NCI-H23 lung, with RPMI-8226 leukemia, with SK-MEL-28 melanoma and with TK-10 renal was more than 100 µM throughout.

For `OCCSCCCSCCO`, the TGI with HCC-2998 colon was more than 100 µM; with HCT-15 colon it was more than 100 µM; in the test on HL-60(TB) leukemia it was 80.7 µM; in the test with HOP-62 NSCLC, more than 100 µM; in the test on HT29 colon, more than 100 µM; with IGROV1 ovarian, more than 100 µM. Also, the TGI with M14 melanoma, in the test on NCI-H23 lung, in the test with SK-MEL-28 melanoma and in the test on TK-10 renal was more than 100 µM in each case.

Consider `C/C(Cl)=N\OC(=O)Nc1ccccc1C(F)(F)F`, for which the TGI in the test with A498 renal was more than 100 µM; with HCC-2998 colon it was more than 100 µM; in the test with HCT-15 colon, more than 100 µM; in the test with HL-60(TB) leukemia it was 15.5 µM; in the test with HT29 colon it was 34.7 µM; in the test with IGROV1 ovarian, more than 100 µM. The TGI in the test with NCI-H23 lung was more than 100 µM; in the test with RPMI-8226 leukemia it was 45.2 µM; with SK-MEL-28 melanoma, 42.3 µM; in the test with TK-10 renal, 28.8 µM.

Regarding `CC(C)CCCC(C)[C@H]1CC[C@H]2[C@@H]3CC[C@H]4C[C@@H](CCC=C(c5cc(Cl)c(O)c(C(=O)OC(C)(C)C)c5)c5cc(Cl)c(O)c(C(=O)OC(C)(C)C)c5)CC[C@]4(C)[C@H]3CC[C@]12C` (stereo partly drawn), the TGI in the test on A498 renal, in the test on HCC-2998 colon, in the test on HCT-15 colon, in the test on HL-60(TB) leukemia, in the test on HOP-62 NSCLC and in the test with HT29 colon was more than 50 µM in each case. The TGI with IGROV1 ovarian, with M14 melanoma, in the test with NCI-H23 lung, in the test with RPMI-8226 leukemia and with SK-MEL-28 melanoma was more than 50 µM throughout.

In the case of `OC(c1cccs1)c1cc2ccccc2s1` (stereo not drawn), the TGI in the test on HCC-2998 colon, in the test with HCT-15 colon, in the test with HL-60(TB) leukemia, in the test on HOP-62 NSCLC, with HT29 colon and with IGROV1 ovarian was more than 10 µM each time. Also, the TGI in the test on M14 melanoma, in the test on NCI-H23 lung, in the test on RPMI-8226 leukemia, in the test on SK-MEL-28 melanoma and with TK-10 renal was more than 10 µM throughout.

As to `OCCCSc1ccccc1SCCCO`, the TGI in the test on HCC-2998 colon, with HCT-15 colon, in the test with HL-60(TB) leukemia, in the test on HOP-62 NSCLC, with HT29 colon and with IGROV1 ovarian was more than 100 µM in each case. Besides, the TGI in the test on M14 melanoma, with NCI-H23 lung, in the test on SK-MEL-28 melanoma and with TK-10 renal was more than 100 µM each time.

For `Cc1cc(N(CCC#N)CCC#N)ccc1/C=C(\NC(=O)/C=C/c1ccccc1)NC(=O)Nc1ccc(Cl)cc1`, the TGI with A498 renal, in the test on HCC-2998 colon, in the test with HCT-15 colon, in the test on HL-60(TB) leukemia, in the test on HT29 colon and in the test on IGROV1 ovarian was more than 100 µM in each case. In addition, the TGI in the test with M14 melanoma, in the test with NCI-H23 lung, in the test with RPMI-8226 leukemia and with SK-MEL-28 melanoma was more than 100 µM throughout.

In the case of `CC12O[C@H](c3ccccc3)[C@H](c3ccccc3)N1C(=O)C1(C(=O)OCc3ccccc3)CC12` (stereo partly drawn), the TGI in the test on A498 renal, with HCC-2998 colon, in the test on HCT-15 colon, in the test with HL-60(TB) leukemia, in the test with HOP-62 NSCLC and with HT29 colon was more than 100 µM each time. The TGI in the test with IGROV1 ovarian and in the test on M14 melanoma was more than 100 µM in each case.

In the case of `CC(=O)Oc1ccn2nc(C)c(Br)c2c1Br`, the TGI with A498 renal was 72.9 µM; with HCC-2998 colon, 49.9 µM; with HCT-15 colon, 33.6 µM; with HL-60(TB) leukemia, more than 66.5 µM; with HOP-62 NSCLC, more than 87 µM; in the test on HT29 colon it was 44.6 µM. Also, the TGI was more than 72.2 µM with IGROV1 ovarian; 34.7 µM with M14 melanoma; 34.8 µM in the test with NCI-H23 lung; 45 µM in the test with SK-MEL-28 melanoma; more than 94.8 µM with TK-10 renal.

Consider `O=C1Oc2ccccc2C(=O)/C1=C/N1C(=O)/C(=C/c2ccc([N+](=O)[O-])cc2)SC1=S`, for which the TGI in the test on A498 renal is 27.6 µM; in the test with HCC-2998 colon, 42.2 µM; in the test with HCT-15 colon, 61.7 µM; in the test on HL-60(TB) leukemia, more than 100 µM; in the test on HOP-62 NSCLC, 40.8 µM; in the test with HT29 colon it was more than 100 µM. For the same compound, the TGI in the test on IGROV1 ovarian was more than 100 µM; in the test with M14 melanoma it was 65.6 µM; in the test on NCI-H23 lung, 55 µM; in the test on RPMI-8226 leukemia, 42.1 µM; in the test with SK-MEL-28 melanoma it was 85.7 µM.

Turning to `Nc1nc2c(ncn2CCOC(c2ccccc2)P(=O)(O)O)c(=O)[nH]1` (stereo not drawn), the TGI with A498 renal, in the test on HCC-2998 colon, in the test with HCT-15 colon, with HL-60(TB) leukemia, with HT29 colon and with IGROV1 ovarian was more than 100 µM in each case. The TGI in the test with NCI-H23 lung, in the test with SK-MEL-28 melanoma and in the test with TK-10 renal was more than 100 µM throughout.

`COC(=O)NCCc1[nH]nc2c1C(=O)C=C(OC)C2=O`: the TGI in the test on HCC-2998 colon is more than 100 µM; in the test on HCT-15 colon, 71.6 µM; in the test with HL-60(TB) leukemia it was 44 µM; in the test with HOP-62 NSCLC, 36 µM; in the test with HT29 colon, more than 100 µM; in the test with IGROV1 ovarian it was 34.9 µM. Further, the TGI is 33.9 µM in the test with M14 melanoma; 44.4 µM in the test on NCI-H23 lung; 53.9 µM in the test on RPMI-8226 leukemia; 35.3 µM with SK-MEL-28 melanoma; more than 100 µM in the test with TK-10 renal.

Take `O=c1nc2n(cc1/C=C\Br)C1CC(O)C(CO2)O1` (stereo not drawn): the TGI in the test on A498 renal is more than 100 µM; with HCC-2998 colon it was more than 100 µM; with HCT-15 colon it was more than 100 µM; with HL-60(TB) leukemia it was 54.8 µM; in the test on HOP-62 NSCLC it was more than 100 µM; in the test on HT29 colon, more than 100 µM. The TGI in the test with IGROV1 ovarian, with NCI-H23 lung, with RPMI-8226 leukemia, in the test with SK-MEL-28 melanoma and in the test on TK-10 renal was more than 100 µM throughout.

Regarding `NC1CC2C3CCC2C1C3=O` (stereo not drawn), the TGI in the test with A498 renal, in the test with HCC-2998 colon, in the test with HCT-15 colon, with HL-60(TB) leukemia, in the test with HOP-62 NSCLC and in the test with HT29 colon was more than 100 µM in each case. Further, the TGI in the test with IGROV1 ovarian, in the test with M14 melanoma, in the test on NCI-H23 lung, in the test with SK-MEL-28 melanoma and in the test on TK-10 renal was more than 100 µM in each case.

Consider `Cc1nc2c(nc1C)-c1c(c3c(n1Cc1ccccc1)C(=O)CCC3)C(=O)C2=O`, for which the TGI in the test on A498 renal was 38 µM; with HCC-2998 colon, 5.49 µM; in the test on HCT-15 colon it was more than 100 µM; with HL-60(TB) leukemia, 97.7 µM; with HOP-62 NSCLC it was more than 100 µM; with HT29 colon it was 23.9 µM. The TGI in the test with M14 melanoma is 91.1 µM; in the test with NCI-H23 lung, more than 100 µM; with SK-MEL-28 melanoma it was 4.18 µM; in the test on TK-10 renal it was 38.1 µM.

As for `N[C@@H]1c2c(Br)sc(Br)c2[C@H](O)[C@@H]1O`, the TGI in the test on A498 renal, with HCC-2998 colon, in the test with HCT-15 colon, with HL-60(TB) leukemia, with HT29 colon and with IGROV1 ovarian was more than 100 µM throughout. The TGI with M14 melanoma, with NCI-H23 lung, in the test with SK-MEL-28 melanoma and with TK-10 renal was more than 100 µM each time.

With `CCOC(=O)CCC(NC(=O)c1ccc(CNc2nc3cc(N)cc(N)c3nc2-c2ccccc2)cc1)C(=O)OCC` (stereo not drawn), the TGI with A498 renal is more than 100 µM; with HCC-2998 colon it was more than 100 µM; in the test on HCT-15 colon, more than 100 µM; in the test with HL-60(TB) leukemia, more than 45 µM; with HOP-62 NSCLC it was more than 100 µM; in the test with HT29 colon it was more than 100 µM. The TGI in the test with IGROV1 ovarian is more than 100 µM; in the test with M14 melanoma, more than 61.6 µM; with NCI-H23 lung it was more than 100 µM; in the test on SK-MEL-28 melanoma, 66.6 µM; in the test on TK-10 renal, more than 100 µM.

For `C#CC(O)/C=C/CCCCCCC#CC/C=C\CC#CCCCCCC/C=C/C(O)C#C` (stereo not drawn), the TGI was determined as 9.06 µM with A498 renal; 3.39 µM in the test on HCC-2998 colon; 6.94 µM in the test on HCT-15 colon; 3.86 µM in the test with HL-60(TB) leukemia; 4.72 µM in the test on HOP-62 NSCLC; 6.86 µM in the test on HT29 colon. The TGI in the test on IGROV1 ovarian came to 2.17 µM; with M14 melanoma it was 2.26 µM; in the test on NCI-H23 lung it was 3.53 µM; in the test on SK-MEL-28 melanoma it was 4.58 µM; in the test with TK-10 renal, 11 µM.

Source of the values: PubChem BioAssay (NCI).
